This note sets out measurements from ChEMBL document CHEMBL1139856, “Smallest peptoids with antiproliferative activity on human neoplastic cells” (J Med Chem, 2007).

As usually defined, the GI50 is the concentration at which growth is held to half of that of the control. Low readings indicate more potent growth inhibition, high ones less potent growth inhibition. A word on the IC50: it is the concentration that inhibits the measured activity by half.

Each structure is given as a SMILES string.

In the first series the test system is HL-60. The series can be described thus: Cytotoxicity against human HL60 cells at <100 uM after 72 hrs. The class given is cell-based. The settings on record: hl-60, 72 h.
In the case of `O=C1CN(CC2CCCO2)C(=O)CN1CCC(c1ccccc1)c1ccccc1` (stereo unspecified), the Activity result is “Not Active”.

For `NC(=O)CN(CC1CCCO1)C(=O)CNCCC(c1ccccc1)c1ccccc1` (stereo unspecified), the Activity result is on record as “Not Active”.

Take `COc1ccc(CCN2CC(=O)N(CCC(c3ccccc3)c3ccccc3)CC2=O)cc1`: the Activity result is on record as “Not Active”.

Turning to `NC(=O)CN(CCC(c1ccccc1)c1ccccc1)C(=O)CNCC1CCCO1` (stereo unspecified), the Activity result was “Not Active”.

Test system in the next series: not listed separately
The series can be described thus: Cytotoxicity against human Jurkat T cells after 72 hrs. The class given is cell-based.
Settings: not given; call rule not given here
`COc1ccc(CCN(CC(=O)NCCC(c2ccccc2)c2ccccc2)C(=O)CNCCC(c2ccccc2)c2ccccc2)cc1`: the GI50 at 72 h came out at 3.75 µM.

Consider `NC(=O)CN(CCC(c1ccccc1)c1ccccc1)C(=O)CN(CCC(c1ccccc1)c1ccccc1)C(=O)CNCC1CCCO1` (stereo unspecified) [TRIMER I], for which growth was halved (GI50 at 72 h) at 21.3 µM.

For `COc1ccc(CCN(CC(=O)N(CCC(c2ccccc2)c2ccccc2)CC(N)=O)C(=O)CNCCC(c2ccccc2)c2ccccc2)cc1`, the concentration for 50% growth inhibition (GI50) at 72 h came to 6.68 µM.

`COc1ccc(CCNCC(=O)NCCC(c2ccccc2)c2ccccc2)cc1`: the concentration for 50% growth inhibition (GI50) at 72 h came to 18 µM.

Regarding `O=C(CN(CCC(c1ccccc1)c1ccccc1)C(=O)CNCC1CCCO1)NCCC(c1ccccc1)c1ccccc1` (stereo unspecified), the GI50 at 72 h was found to be 5.83 µM.

Compound `COc1ccc(CCNCC(=O)N(CCC(c2ccccc2)c2ccccc2)CC(N)=O)cc1` had a concentration for 50% growth inhibition (GI50) at 72 h of 27.3 µM.

Take `COc1ccc(CCN(CC(N)=O)C(=O)CNCCC(c2ccccc2)c2ccccc2)cc1`: the GI50 at 72 h turned out to be 33.9 µM.

`O=C(CNCCC(c1ccccc1)c1ccccc1)NCCC(c1ccccc1)c1ccccc1` displayed a GI50 at 72 h of 10.2 µM.

Turning to `NC(=O)CN(CCC(c1ccccc1)c1ccccc1)C(=O)CNCCC(c1ccccc1)c1ccccc1`, halving of growth (GI50 at 72 h) required 10.5 µM.

In the next series the test system is Jurkat. The series can be described thus: Cytotoxicity against human Jurkat T cells at <100 uM after 72 hrs. It is filed as cell-based.
Settings: not given
With `O=C1CN(CC2CCCO2)C(=O)CN1CCC(c1ccccc1)c1ccccc1` (stereo unspecified), the Activity result is reported as “Not Active”.

As for `NC(=O)CN(CC1CCCO1)C(=O)CNCCC(c1ccccc1)c1ccccc1` (stereo unspecified), the Activity entry is “Not Active”.

Regarding `COc1ccc(CCN2CC(=O)N(CCC(c3ccccc3)c3ccccc3)CC2=O)cc1`, the Activity result is given as “Not Active”.

Turning to `NC(=O)CN(CCC(c1ccccc1)c1ccccc1)C(=O)CNCC1CCCO1` (stereo unspecified), the Activity result is “Not Active”.

Test system in another series: not listed separately
The series can be described thus: Cytotoxicity against human MDA-MB-231 cells after 72 hrs. It is filed as cell-based.
Settings: not given
`COc1ccc(CCN(CC(=O)NCCC(c2ccccc2)c2ccccc2)C(=O)CNCCC(c2ccccc2)c2ccccc2)cc1` registered a GI50 at 72 h of 1.02 µM.

For the compound `NC(=O)CN(CCC(c1ccccc1)c1ccccc1)C(=O)CN(CCC(c1ccccc1)c1ccccc1)C(=O)CNCC1CCCO1` (stereo unspecified) [TRIMER I], growth was halved (GI50 at 72 h) at 2.72 µM.

In turn, `COc1ccc(CCN(CC(=O)N(CCC(c2ccccc2)c2ccccc2)CC(N)=O)C(=O)CNCCC(c2ccccc2)c2ccccc2)cc1` came in with a 50% growth inhibitory concentration (GI50) at 72 h of 1.32 µM.

As to `COc1ccc(CCNCC(=O)NCCC(c2ccccc2)c2ccccc2)cc1`, the concentration for 50% growth inhibition (GI50) at 72 h was 2.73 µM.

For the compound `O=C(CN(CCC(c1ccccc1)c1ccccc1)C(=O)CNCC1CCCO1)NCCC(c1ccccc1)c1ccccc1` (stereo unspecified), it took 1.06 µM to inhibit growth by half (GI50 at 72 h).

For `COc1ccc(CCNCC(=O)N(CCC(c2ccccc2)c2ccccc2)CC(N)=O)cc1`, it took 9.36 µM to inhibit growth by half (GI50 at 72 h).

Consider `COc1ccc(CCN(CC(N)=O)C(=O)CNCCC(c2ccccc2)c2ccccc2)cc1`, for which the 50% growth inhibitory concentration (GI50) at 72 h is 19.1 µM.

`O=C(CNCCC(c1ccccc1)c1ccccc1)NCCC(c1ccccc1)c1ccccc1` came in with a GI50 at 72 h of 3.46 µM.

The compound `NC(=O)CN(CCC(c1ccccc1)c1ccccc1)C(=O)CNCCC(c1ccccc1)c1ccccc1` registered a GI50 at 72 h of 3.08 µM.

Test system in another series: not listed separately
The series is described as follows: Cytotoxicity against human HL60 cells after 72 hrs. It is filed as cell-based, HL-60.
Settings: not given
In turn, `COc1ccc(CCN(CC(=O)NCCC(c2ccccc2)c2ccccc2)C(=O)CNCCC(c2ccccc2)c2ccccc2)cc1` returned a concentration for 50% growth inhibition (GI50) at 72 h of 2.94 µM.

Consider `NC(=O)CN(CCC(c1ccccc1)c1ccccc1)C(=O)CN(CCC(c1ccccc1)c1ccccc1)C(=O)CNCC1CCCO1` (stereo unspecified) [TRIMER I], for which growth was halved (GI50 at 72 h) at 3.55 µM.

`COc1ccc(CCN(CC(=O)N(CCC(c2ccccc2)c2ccccc2)CC(N)=O)C(=O)CNCCC(c2ccccc2)c2ccccc2)cc1` yielded a GI50 at 72 h of 21.8 µM.

Turning to `COc1ccc(CCNCC(=O)NCCC(c2ccccc2)c2ccccc2)cc1`, halving of growth (GI50 at 72 h) required 10.6 µM.

Consider `O=C(CN(CCC(c1ccccc1)c1ccccc1)C(=O)CNCC1CCCO1)NCCC(c1ccccc1)c1ccccc1` (stereo unspecified), for which halving of growth (GI50 at 72 h) required 23 µM.

Compound `COc1ccc(CCNCC(=O)N(CCC(c2ccccc2)c2ccccc2)CC(N)=O)cc1` yielded a GI50 at 72 h of 29.1 µM.

`COc1ccc(CCN(CC(N)=O)C(=O)CNCCC(c2ccccc2)c2ccccc2)cc1`: halving of growth (GI50 at 72 h) required 31.1 µM.

The compound `O=C(CNCCC(c1ccccc1)c1ccccc1)NCCC(c1ccccc1)c1ccccc1` had a 50% growth inhibitory concentration (GI50) at 72 h of 12.6 µM.

`NC(=O)CN(CCC(c1ccccc1)c1ccccc1)C(=O)CNCCC(c1ccccc1)c1ccccc1` yielded a GI50 at 72 h of 13.2 µM.

For another series, the system named is HeLa. The series is described as follows: Antimitotic activity against human HeLa cells after 18 hrs.
Settings: not given
It is filed as functional, cell-based.
For `COc1ccc(CCN(CC(=O)NCCC(c2ccccc2)c2ccccc2)C(=O)CNCCC(c2ccccc2)c2ccccc2)cc1`, the 50% inhibitory concentration (IC50) was 0.025 µM.

In turn, `COc1ccc(CCNCC(=O)NCCC(c2ccccc2)c2ccccc2)cc1` returned an IC50 of 0.994 µM.

With `O=C(CNCCC(c1ccccc1)c1ccccc1)NCCC(c1ccccc1)c1ccccc1`, the midpoint of inhibition, the IC50, lay at 0.035 µM.

With `NC(=O)CN(CCC(c1ccccc1)c1ccccc1)C(=O)CNCCC(c1ccccc1)c1ccccc1`, half-maximal inhibition (IC50) required 0.154 µM.

Test system in another series: not listed separately
The series can be described thus: Cytotoxicity against human A549 cells after 72 hrs.
Settings: not given
The class given is cell-based.
`COc1ccc(CCN(CC(=O)NCCC(c2ccccc2)c2ccccc2)C(=O)CNCCC(c2ccccc2)c2ccccc2)cc1` had a GI50 at 72 h of 1.02 µM.

Regarding `NC(=O)CN(CCC(c1ccccc1)c1ccccc1)C(=O)CN(CCC(c1ccccc1)c1ccccc1)C(=O)CNCC1CCCO1` (stereo unspecified) [TRIMER I], halving of growth (GI50 at 72 h) required 2.57 µM.

Regarding `COc1ccc(CCN(CC(=O)N(CCC(c2ccccc2)c2ccccc2)CC(N)=O)C(=O)CNCCC(c2ccccc2)c2ccccc2)cc1`, the GI50 at 72 h stood at 1.41 µM.

Consider `COc1ccc(CCNCC(=O)NCCC(c2ccccc2)c2ccccc2)cc1`, for which it took 3.73 µM to inhibit growth by half (GI50 at 72 h).

As to `O=C(CN(CCC(c1ccccc1)c1ccccc1)C(=O)CNCC1CCCO1)NCCC(c1ccccc1)c1ccccc1` (stereo unspecified), the GI50 at 72 h worked out at 1.06 µM.

In the case of `COc1ccc(CCNCC(=O)N(CCC(c2ccccc2)c2ccccc2)CC(N)=O)cc1`, the GI50 at 72 h is 9.36 µM.

The compound `O=C(CNCCC(c1ccccc1)c1ccccc1)NCCC(c1ccccc1)c1ccccc1` showed a GI50 at 72 h of 3.46 µM.

`NC(=O)CN(CCC(c1ccccc1)c1ccccc1)C(=O)CNCCC(c1ccccc1)c1ccccc1` showed a GI50 at 72 h of 3.08 µM.

A further series relates to HT-29. The series can be described thus: Cytotoxicity against human HT29 cells after 72 hrs. The settings on record: ht-29, 72 h. The class given is cell-based.
Compound `COc1ccc(CCN(CC(=O)NCCC(c2ccccc2)c2ccccc2)C(=O)CNCCC(c2ccccc2)c2ccccc2)cc1` registered a GI of 1.04 µM.

Consider `NC(=O)CN(CCC(c1ccccc1)c1ccccc1)C(=O)CN(CCC(c1ccccc1)c1ccccc1)C(=O)CNCC1CCCO1` (stereo unspecified) [TRIMER I], for which the GI was 2.27 µM.

`COc1ccc(CCN(CC(=O)N(CCC(c2ccccc2)c2ccccc2)CC(N)=O)C(=O)CNCCC(c2ccccc2)c2ccccc2)cc1` came in with a GI of 1.41 µM.

In the case of `COc1ccc(CCNCC(=O)NCCC(c2ccccc2)c2ccccc2)cc1`, the GI amounted to 1.89 µM.

As to `O=C(CN(CCC(c1ccccc1)c1ccccc1)C(=O)CNCC1CCCO1)NCCC(c1ccccc1)c1ccccc1` (stereo unspecified), the GI was 0.94 µM.

For `COc1ccc(CCNCC(=O)N(CCC(c2ccccc2)c2ccccc2)CC(N)=O)cc1`, the GI was 9.14 µM.

`COc1ccc(CCN(CC(N)=O)C(=O)CNCCC(c2ccccc2)c2ccccc2)cc1` had a GI of 9.14 µM.

For `O=C(CNCCC(c1ccccc1)c1ccccc1)NCCC(c1ccccc1)c1ccccc1`, the GI is 3.03 µM.

Compound `NC(=O)CN(CCC(c1ccccc1)c1ccccc1)C(=O)CNCCC(c1ccccc1)c1ccccc1` had a GI of 1.64 µM.
